pIC50: −log10 of the molar value.
Molecular target: Acetylcholinesterase (Homo sapiens, UniProt P22303)
Experiment: Inhibition of AChE by Ellman's method
Conditions: for pIC50: read-out: IC50; call rule not given here

Acetylcholinesterase, sequence (P22303 whole entry): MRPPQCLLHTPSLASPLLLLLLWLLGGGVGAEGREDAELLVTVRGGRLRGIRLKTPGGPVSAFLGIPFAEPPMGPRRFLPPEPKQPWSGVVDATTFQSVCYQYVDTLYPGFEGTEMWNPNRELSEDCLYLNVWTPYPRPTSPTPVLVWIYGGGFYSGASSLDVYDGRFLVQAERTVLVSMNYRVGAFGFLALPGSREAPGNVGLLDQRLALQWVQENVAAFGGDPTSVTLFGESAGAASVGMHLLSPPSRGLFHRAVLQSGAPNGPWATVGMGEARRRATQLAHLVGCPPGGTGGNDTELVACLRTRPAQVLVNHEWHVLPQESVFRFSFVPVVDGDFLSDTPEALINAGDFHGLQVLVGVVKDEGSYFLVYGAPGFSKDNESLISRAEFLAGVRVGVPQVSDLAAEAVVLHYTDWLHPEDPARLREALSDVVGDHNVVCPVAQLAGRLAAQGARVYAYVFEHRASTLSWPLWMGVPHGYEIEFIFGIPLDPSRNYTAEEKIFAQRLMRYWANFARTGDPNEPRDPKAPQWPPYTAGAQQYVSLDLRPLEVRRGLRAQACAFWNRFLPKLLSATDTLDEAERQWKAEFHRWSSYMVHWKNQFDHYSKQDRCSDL

Row | Structure (SMILES) | pIC50 | IC50
1 | CC(=O)O[C@H]1C[C@@H]2C(=CC[C@]3(C)[C@@H]([C@H](C)N(C)C)[C@H](O)C[C@@]23C)C[C@@]23O[C@@H]2[C@H]2OC[C@](C)([C@H]2NC(=O)c2ccccc2)[C@H]13 | 5.52 | –
2 | C[C@@H]([C@H]1[C@H](O)C[C@@]2(C)[C@@H]3C[C@H](O)[C@H]4[C@]5(C)CO[C@]4(C=C[C@@H]5NC(=O)c4ccccc4)CC3=CC[C@]12C)N(C)C | 5.07 | –
3 | C[C@@H]1[C@@H]2CC[C@@H]3C(=CC[C@]4(C)[C@@H]([C@H](C)N(C)C)[C@H](O)C[C@@]34C)C=C2CC[C@@H]1N(C)C [31-DEMETHYLBUXAMINOL] | 4.59 | –
4 | CC(=O)O[C@@H]1C[C@@]2(C)[C@@H]3C[C@H]4OC[C@@]5(C)[C@@H](NC(=O)c6ccccc6)C=C[C@@](O)(CC3=CC[C@]2(C)[C@H]1[C@H](C)N(C)C)[C@@H]45 [BUXAFURANAMIDE] | 4.85 | –
5 | CC(=O)O[C@@H]1C[C@@]2(C)[C@@H]3CC[C@H]4[C@](C)(CO)[C@@H](NC(=O)c5ccccc5)C=C[C@]4(O)CC3=CC[C@]2(C)[C@H]1[C@H](C)N(C)C [BUXALONGIFOLAMIDINE] | 4.52 | –
6 | C[C@@H]([C@H]1CC[C@@]2(C)[C@@H]3CC[C@@H]4C(=CC3=CC[C@]12C)CC[C@H](N(C)C)C4(C)C)N(C)C [BUXAMINE A] | 4.10 | –
7 | C[C@@H]([C@H]1[C@H](O)C[C@@]2(C)[C@@H]3CC[C@@H]4C(=CC3=CC[C@]12C)CC[C@H](N(C)C)C4(C)C)N(C)C [BUXAMINOL A] | 4.53 | –
8 | CN[C@H]1CCC2=CC3=CC[C@]4(C)[C@@H]([C@H](C)N(C)C)[C@H](O)C[C@@]4(C)[C@@H]3CC[C@H]2C1(C)C [BUXAMINOL C] | 4.40 | –
9 | C/C=C1/C(=O)C[C@@]2(C)[C@@H]3CC[C@H]4C(C)(C)[C@@H](N(C)C)CC[C@@]45C[C@@]35CC[C@]12C [CYCLOBUXOPHYLLINE K] | 4.24 | –
10 | C[C@@H]([C@H]1[C@H](O)C[C@@]2(C)[C@@H]3C=C[C@H]4C(C)(C)[C@@H](N(C)C)[C@H](O)C[C@@]45C[C@@]35CC[C@]12C)N(C)C [CYCLONATAMINOL] | 4.64 | –
11 | NCCCCNC(=O)/C=C/c1ccc(O)cc1 [P-COUMAROYLPUTRESCINE] | – | Not Active

— ChEMBL document CHEMBL1649337, “Triterpenoidal alkaloids from Buxus natalensis and their acetylcholinesterase inhibitory activity” (J Nat Prod, 2010)
